Test results from patent publication US8404687B2, “Disubstituted phthalazine hedgehog pathway antagonists” (Eli Lilly and Company, priority 2008, dated 2013).
Structures can show the parent of a compound that is named as a salt.

Experiments:
[1] = biological target: T1, CYP3A4 (Homo sapiens, UniProt P08684); assay: CYP3A4 Inhibition Assay; format: in vitro ADME; conditions: liver microsomes, pH 7.4, probe midazolam (5 μM; formation of 1-OH-midazolam), human liver microsomal preparation, 10 μM inhibitor, 5 μM midazolam substrate
T1 construct: from tissue; host or cells: human liver microsomes
T1 sequence (P08684 whole entry): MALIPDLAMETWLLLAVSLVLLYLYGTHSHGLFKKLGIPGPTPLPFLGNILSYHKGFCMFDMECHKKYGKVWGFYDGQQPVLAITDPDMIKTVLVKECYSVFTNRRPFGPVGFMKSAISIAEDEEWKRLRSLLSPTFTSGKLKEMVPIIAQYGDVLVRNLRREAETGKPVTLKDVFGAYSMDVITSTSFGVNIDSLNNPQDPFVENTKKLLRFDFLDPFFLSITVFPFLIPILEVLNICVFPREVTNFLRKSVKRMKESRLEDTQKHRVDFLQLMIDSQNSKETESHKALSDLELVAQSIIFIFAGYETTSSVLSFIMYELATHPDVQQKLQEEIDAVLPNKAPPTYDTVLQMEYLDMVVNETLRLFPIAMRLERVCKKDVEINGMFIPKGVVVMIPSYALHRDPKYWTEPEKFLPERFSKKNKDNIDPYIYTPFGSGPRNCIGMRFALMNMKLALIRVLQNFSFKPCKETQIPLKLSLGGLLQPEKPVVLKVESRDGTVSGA
Procedure: Incubation samples are prepared by adding a human liver microsomal preparation to the test inhibitor (final concentrations 0.05 mg/mL protein, 10 μM inhibitor in 100 mM NaPO4, pH 7.4 buffer) and mixed. Samples are pre-incubated for approximately five minutes at 37° C. Following the pre-incubation period, the reaction is initiated with the addition of a solution containing NADPH and midazolam, as the enzyme substrate, (final concentration 1 mM NADPH, 5 μM midazolam). After addition of the NADPH solution, the samples are incubated for 3 min at approximately 37° C. Following the incubation period, the reaction is quenched by the addition of 50 μL of methanol (and an internal standard for chromatography) and the samples are mixed well. After quenching the reaction, the mixture is centrifuged at approximately 4000 rpm for 15 min at approximately 5° C. and analyzed by LC/MS analysis.
Samples are analyzed using HPLC/MS with gradient elution on short conventional C18 columns, (Loading Mobile Phase—95/5 Milli-Q H2O/methanol (v/v) with 1% acetic acid. Mobile Phase B—80/20 Milli-Q H2O/methanol (v/v) with 1% acetic acid. Mobile Phase C—5/95 Milli-Q H2O/methanol (v/v) with 1% acetic acid. Rinsing Mobile Phase—75/25 Milli-Q H2O/acetonitrile (v/v).
The samples are injected into a Mass Spectral Analyzer for Selected Ion Monitoring (SIM) at a mass of 342.1 (1-OH-midazolam) and 346.1 (α-hydroxymidazolam-d4 internal standard) using Turbolon Spray under positive conditions. Data are reported as % inhibition of the formation of 1-OH-midazolam in the presence of an inhibitor concentration of 10 μM.

[2] = test system: Gli1 transcript in Daoy cells stimulated with Shh conditioned media; assay: Functional assay for measuring the inhibition of Gli1 in Daoy cells (bDNA); format: cell-based; conditions: Homo sapiens; Daoy cells treated with Shh-CM, 24 hours incubation with compound, Gli1 transcript by bDNA luminescence
Procedure: Biological activity is determined using a functional assay in Daoy neuronal cancer cells and measures levels of Gli1 ribonucleic acid via a bDNA (branched deoxyribonucleic acid) assay system (Panomics, Inc., Fremont, Calif.). Gli was originally discovered in a Glioblastoma cell line and encodes a zinc finger protein that is activated by Shh signaling. The maximum response is obtained by inducing Gli1 transcription in the Daoy cells with conditioned medium (human embryonic kidney, HEK-293 cells stably expressing recombinant Shh) for 24 hours and then measuring the amount of stimulated Gli1 transcript. […]
The bDNA assay system utilizes the technology of branched-chain DNA to allow amplification of a target ribonucleic acid (transcript). […] The addition of a chemilumigenic substrate during the amplification step allows for detection using luminescence. […]
Daoy cells are grown to confluency in tissue culture T225-flasks in Daoy growth media containing Minimum Essential Medium (MEM) plus 10% Fetal Bovine Serum (FBS) with […] non-essential amino acids and 1 mM sodium pyruvate. The cells are removed from the T225-flasks using trypsin ethylenediaminetetraacetic acid (EDTA), centrifuged, resuspended in media, and then counted. […]

**Q.** Which inhibition at 3 min, 10 μM [1] does the source give for CC1CN(C(=O)Nc2ccc(OC(F)(F)F)cc2)CCN1c1nnc(-c2ccc(F)cc2)c2ccccc12 (racemic) [Example 6, (±)-4-(4-(4-Fluorophenyl)phthalazin-1-yl)-3-methyl-N-(4-(trifluoromethoxy)phenyl)piperazine-1-carboxamide hydrochloride] here?
**A.** The inhibition at 3 min, 10 μM was under 45%.

**Q.** For C[C@H]1CN(C(=O)Nc2ccc(F)cc2)CCN1c1nnc(-c2ccc(F)cc2)c2ccccc12 [Example 2, (S)—N-(4-Fluorophenyl)-4-(4-(4-fluorophenyl)phthalazin-1-yl)-3-methylpiperazine-1-carboxamide hydrochloride], which IC50 [2] is on record?
**A.** Its IC50 is about 0.42 nM.

**Q.** C[C@H]1CN(c2nnc(-c3ccc(F)cc3)c3ccccc23)CCN1C(=O)Nc1ccc(F)cc1C(F)(F)F [Example 18, (S)-N-(4-Fluoro-2-(trifluoromethyl)phenyl)-4-(4-(4-fluorophenyl)phthalazin-1-yl)-2-methylpiperazine-1-carboxamide hydrochloride] was tested. Which inhibition at 3 min, 10 μM [1] did it give?
**A.** The inhibition at 3 min, 10 μM was under 45%.

**Q.** How did the inhibition at 3 min, 10 μM [1] turn out when C[C@H]1CN(c2nnc(-c3ccc(C#N)cc3)c3ccccc23)CCN1C(=O)Nc1ccc(F)cc1F [Example 26, (S)-4-(4-(4-Cyanophenyl)phthalazin-1-yl)-N-(2,4-difluorophenyl)-2-methylpiperazine-1-carboxamide hydrochloride] was run?
**A.** The inhibition at 3 min, 10 μM was under 45%.

**Q.** How did the inhibition at 3 min, 10 μM [1] turn out when C[C@H]1CN(c2nnc(-c3ccc(C(F)(F)F)cc3)c3ccccc23)CCN1C(=O)Nc1ccc(F)cc1 [Example 45, (S)-N-(4-Fluorophenyl)-2-methyl-4-(4-(4-(trifluoromethyl)phenyl)phthalazin-1-yl)piperazine-1-carboxamide hydrochloride] was run?
**A.** Its inhibition at 3 min, 10 μM is under 45%.

**Q.** For C[C@H]1CN(c2nnc(-c3ccc(C(F)(F)F)cc3)c3ccccc23)CCN1C(=O)Nc1ccc(F)cc1F [Example 47, (S)-N-(2,4-Difluorophenyl)-2-methyl-4-(4-(4-(trifluoromethyl)phenyl)phthalazin-1-yl)piperazine-1-carboxamide hydrochloride], which inhibition at 3 min, 10 μM [1] is on record?
**A.** Its inhibition at 3 min, 10 μM is under 45%.

**Q.** With C[C@H]1CN(C(=O)Nc2ccc(OC(F)(F)F)cc2)CCN1c1nnc(-c2ccc(F)cc2)c2ccccc12 [Example 48, (S)-4-(4-(4-Fluorophenyl)phthalazin-1-yl)-3-methyl-N-(4-(trifluoromethoxy)phenyl)piperazine-1-carboxamide hydrochloride] as the molecule, how does the inhibition at 3 min, 10 μM [1] read?
**A.** The inhibition at 3 min, 10 μM was under 45%.

**Q.** How did the inhibition at 3 min, 10 μM [1] turn out when C[C@H]1CN(C(=O)Nc2ccc(F)cc2C(F)(F)F)CCN1c1nnc(-c2ccc(C#N)cc2)c2ccccc12 [Example 60, (S)-4-(4-(4-Cyanophenyl)phthalazin-1-yl)-N-(4-fluoro-2-(trifluoromethyl)phenyl)-3-methylpiperazine-1-carboxamide hydrochloride] was run?
**A.** The inhibition at 3 min, 10 μM was under 45%.

**Q.** Which inhibition at 3 min, 10 μM [1] does the source give for C[C@H]1CN(C(=O)Nc2ccc(F)cc2C(F)(F)F)CCN1c1nnc(-c2ccccc2)c2ccccc12 [Example 69, (S)-N-(4-Fluoro-2-(trifluoromethyl)phenyl)-3-methyl-4-(4-phenylphthalazin-1-yl)piperazine-1-carboxamide hydrochloride] here?
**A.** Its inhibition at 3 min, 10 μM is under 45%.

**Q.** How did the inhibition at 3 min, 10 μM [1] turn out when CC[C@H]1CN(c2nnc(-c3ccc(F)cc3)c3ccccc23)CCN1C(=O)Nc1ccc(F)cc1F [Example 86, (S)-N-(2,4-Difluorophenyl)-2-ethyl-4-(4-(4-fluorophenyl)phthalazin-1-yl)piperazine-1-carboxamide hydrochloride] was run?
**A.** Its inhibition at 3 min, 10 μM is under 45%.

**Q.** With CC[C@H]1CN(c2nnc(-c3ccc(F)cc3)c3ccccc23)CCN1C(=O)Nc1ccc(F)cc1C(F)(F)F [Example 87, (S)-2-Ethyl-N-(4-fluoro-2-(trifluoromethyl)phenyl)-4-(4-(4-fluorophenyl)phthalazin-1-yl)piperazine-1-carboxamide hydrochloride] as the molecule, how does the inhibition at 3 min, 10 μM [1] read?
**A.** The inhibition at 3 min, 10 μM was under 45%.

**Q.** With CC[C@H]1CN(c2nnc(-c3ccc(F)cc3)c3ccccc23)CCN1C(=O)Nc1ccc(F)cc1 [Example 88, (S)-2-Ethyl-N-(4-fluorophenyl)-4-(4-(4-fluorophenyl)phthalazin-1-yl)piperazine-1-carboxamide hydrochloride] as the molecule, how does the inhibition at 3 min, 10 μM [1] read?
**A.** Its inhibition at 3 min, 10 μM is under 45%.
